Data reported in ChEMBL document CHEMBL2163222 (J Med Chem, 2012).
Calls of active or inactive are those of the source. The calls are words filed in the database; no cut-off is given here.

Legend:
[1] = test system: OVCAR-4; assay: Growth inhibition of human OVCAR4 cells at 10 uM by NCI-60 cell inhibition assay; assay type: functional; conditions: read-out: GI
[2] = test system: IGROV-1; assay: Growth inhibition of human IGROV1 cells at 10 uM by NCI-60 cell inhibition assay; assay type: functional; conditions: read-out: GI
[3] = test system: SK-MEL-5; assay: Growth inhibition of human SK-MEL-5 cells at 10 uM by NCI-60 cell inhibition assay; assay type: functional; conditions: read-out: GI
[4] = test system: MDA-MB-435; assay: Growth inhibition of human MDA-MB-435 cells at 10 uM by NCI-60 cell inhibition assay; assay type: functional; conditions: read-out: GI
[5] = test system: M14; assay: Growth inhibition of human M14 cells at 10 uM by NCI-60 cell inhibition assay; assay type: functional; conditions: read-out: GI
[6] = test system: SNB-19; assay: Growth inhibition of human SNB19 cells at 10 uM by NCI-60 cell inhibition assay; assay type: functional; conditions: read-out: GI
[7] = test system: KM12; assay: Growth inhibition of human KM12 cells at 10 uM by NCI-60 cell inhibition assay; assay type: functional; conditions: read-out: GI
[8] = test system: U-373MG ATCC; assay: Inhibition of eIF2 activity in human U373 cells at 0.5 uM after 4 hrs by Western blotting method; assay type: functional, cell-based
[9] = test system: Hs 683; assay: Inhibition of eIF2 activity in human Hs683 cells at 0.5 uM after 4 hrs by Western blotting method; assay type: functional, cell-based
[10] = Cytostatic activity in human U373 cells at 0.4 uM assessed global growth ratio after 72 hrs by quantitative video microscopy; assay type: functional, U-373MG ATCC
[11] = target: Dual specificity tyrosine-phosphorylation-regulated kinase 1A (Homo sapiens, UniProt Q13627); assay: Inhibition of DYRK1A kinase using RBER-CHKtide substrate by radiometric protein kinase assay
[12] = test system: OE33; assay: Growth inhibition of human OE33 cells after 3 days by MTT assay; assay type: functional, cell-based; conditions: OE33, 72 h
[13] = test system: T47D; assay: Growth inhibition of human T47D cells at 10 uM by NCI-60 cell inhibition assay; assay type: functional; conditions: read-out: GI
[14] = Growth inhibition of human Hs 578T cells at 10 uM by NCI-60 cell inhibition assay; assay type: functional; conditions: read-out: GI
[15] = test system: MCF7; assay: Growth inhibition of human MCF7 cells at 10 uM by NCI-60 cell inhibition assay; assay type: functional; conditions: read-out: GI
[16] = test system: DU-145; assay: Growth inhibition of human DU145 cells at 10 uM by NCI-60 cell inhibition assay; assay type: functional; conditions: read-out: GI
[17] = test system: TK-10; assay: Growth inhibition of human TK10 cells at 10 uM by NCI-60 cell inhibition assay; assay type: functional; conditions: read-out: GI
[18] = test system: SN12C; assay: Growth inhibition of human SN12C cells at 10 uM by NCI-60 cell inhibition assay; assay type: functional; conditions: read-out: GI
[19] = test system: ACHN; assay: Growth inhibition of human ACHN cells at 10 uM by NCI-60 cell inhibition assay; assay type: functional; conditions: read-out: GI
[20] = test system: A498; assay: Growth inhibition of human A498 cells at 10 uM by NCI-60 cell inhibition assay; assay type: functional; conditions: read-out: GI
[21] = cells; conditions: Homo sapiens, U373 MG, 72 h

Row | SMILES | inhibition of growth at 10 µM [1] [%] | inhibition of growth at 10 µM [2] [%] | inhibition of growth at 10 µM [3] [%] | inhibition of growth at 10 µM [4] [%] | inhibition of growth at 10 µM [5] [%] | inhibition of growth at 10 µM [6] [%] | inhibition of growth at 10 µM [7] [%] | inhibition [8] | inhibition [9] | Ratio [10] | IC50 [12] [nM] | inhibition of growth at 10 µM [13] [%] | inhibition of growth at 10 µM [14] [%] | inhibition of growth at 10 µM [15] [%] | inhibition of growth at 10 µM [16] [%] | inhibition of growth at 10 µM [17] [%] | inhibition of growth at 10 µM [18] [%] | inhibition of growth at 10 µM [19] [%] | inhibition of growth at 10 µM [20] [%] | IC50 [21] [nM] | also measured
1 | Cc1c2c(cc[n+]1Cc1ccccc1)c1ccc(OCC3CCCCC3)cc1n2CC1CCCCC1.[Br-] | -94.3 | -70.6 | -100 | -84.9 | -84.6 | -90.7 | -99.9 | inactive | inactive | 0.25 | 370 | -74.1 | -36.2 | -92.3 | -100 | -93.6 | -91.9 | -100 | -97.4 | 370 | IC50 [11]: 43000 nM
2 | Cc1c2c(cc[n+]1Cc1ccccc1)c1ccc(OCc3ccccc3)cc1n2Cc1ccccc1.[Br-] | -3.79 | -65.1 | -99.4 | -93.8 | -87.9 | -13.3 | -98.4 | Active | Active | 0.4 | 700 | -4.02 | -35.9 | -23.1 | -33.6 | 11.8 | -86.6 | 8.54 | -34.5 | 440 | 
